This note sets out measurements from US20080004290A1, “Anti-Cancer Agents” (THE UNIVERSITY OF QUEENSLAND, priority 2003, published 2008).

Read-outs that look alike come from different tables or passages of the source.

Data set [1] concerns NFF, neonatal foreskin fibroblasts. Kind of data set: Cell survival assay (clonogenic survival, SRB), normal cells. Format: cell-based, human. Put shortly:
(§1)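 Cells (5×10^3/well, RPMI 1640 with 10% FCS) treated 24 h with compound at 0.01-10 μg/mL, then washed and grown 72 h drug-free at 37 °C, 5% CO2. Survival read by SRB staining after methylated-spirit fixation, absorbance 564 nm.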

The subject of another data set is MM96L melanoma cells. The data set can be described thus: Cell survival assay (clonogenic survival, SRB). Type of data set: cell-based, human. Put shortly: as §1
The subject of data set [2] is CI-80-13S ovarian cancer cells. The data set can be described thus: Cell survival assay (SRB). Type of data set: cell-based, human. The settings on record: Table 10, standard deviations in parentheses, read-out: Cell line IC50 (μM) C18013S. Put shortly: (§2)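 5×10^3 cells/well, overnight attachment; 24 h compound pulse; medium exchanged; 72 h recovery; methylated-spirits fixation; 0.4% SRB stain 1 h; dye solubilised in 10 mM Tris; A564.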

The test system of another data set is DO4 melanoma cells. Kind of data set: Cell survival assay (SRB). Type of data set: cell-based, human. The settings on record: Table 10, standard deviations in parentheses, read-out: Cell line IC50 (μM) DO4. In short, it runs like this:
as §2

For data set [3], the system named is DU145 prostate cancer cells. Kind of data set: Cell survival assay (SRB). The settings on record: Table 10, standard deviations in parentheses, read-out: Cell line IC50 (μM) DU145. Format: cell-based, human. In short, it runs like this:
as §2

Another data set relates to JAM ovarian cancer cells. Kind of data set: Cell survival assay (SRB). Format: cell-based, human. Particulars: Table 10, standard deviations in parentheses, read-out: Cell line IC50 (μM) JAM. In short, it runs like this: as §2
Data set [4] relates to MCF-7 breast cancer cells. Kind of data set: Cell survival assay (SRB). Type of data set: cell-based, human. Particulars: Table 10, standard deviations in parentheses, read-out: Cell line IC50 (μM) MCF7. Put shortly: as §2
Another data set relates to SkMel28 melanoma cells. The data set can be described thus: Cell survival assay (SRB). Format: cell-based, human. Particulars: Table 10, standard deviations in parentheses, read-out: Cell line IC50 (μM) SkMel. Put shortly:
as §2

In another data set the test system is p21^WAF1/Cip1 (CDKN1A). The data set can be described thus: Induction of p21 expression (semi-quantitative RT-PCR) in MM96L cells. Format: cell-based, human. The settings on record: MM96L melanoma cells, 10 μg/ml, after 16 hrs treatment. From the text: Induction of p21 Expression. It has been postulated that histone acetylation is associated with activation of gene transcription. […] Possibly the best characterised gene to be induced following exposure to different HDAC inhibitors is that of the cyclin-dependent kinase inhibitor p21^WAF1/Cip1, which blocks cyclin-dependent kinase activity thereby causing cell-cycle arrest in G1. HDAC inhibitors are thought to act directly on the CDKN1A promoter rather than an upstream target. The HDAC inhibitor SAHA induces accumulation of acetylated histones in the chromatin associated with the CDKN1A gene, and this correlates with the observed increase in transcription. […]
Cell Treatment and Total RNA Isolation. […] RNA was analysed for sufficient quality by formamide agarose gel electrophoresis, and quantified by spectrophotometry.
p21 Expression. The semi-quantitative analysis of mRNA expression of p21^WAF1/Cip1 was carried out by RT-PCR. […] Products were analysed by agarose gel electrophoresis, and visualised on a UV light box. Product intensity was determined to increase linearly with number of cycles and amount of mRNA used, by densitometric analysis using ImageQuaNT 4.2 software (Molecular Dynamics, Sunnyvale, Calif.). Quantitation of p21^WAF1/Cip1 induction was also performed by densitometric analysis using ImageQuaNT 4.2 software following normalisation to GAPDH product intensity.

Data set [5] can be described thus: Oral bioavailability, plasma concentration after oral and intravenous administration. Format: in vivo, Wistar rats. Particulars: 5 mg/kg in 4:1 olive oil:DMSO, three rats starved prior to dosing. As to the method:
FIG. 7. Oral Bioavailability. Time dependent plasma concentration of compound of example 24 after oral (top) and intravenous (bottom) administration at 5 mg/kg to each of three Wistar rats.
Compounds of the invention were examined to see whether this new series had the expected favorable properties for oral delivery. […] Compound 24 (Log D7.0 2.7) was administered intravenously and orally to rats. […] Neither vehicle nor fasting had any significant effects on these parameters.

Take `CN(C)c1ccc(C(=O)N[C@@H](CSCCCC(=O)NO)C(=O)NC2CCCc3ccccc32)cc1` (stereo partly shown) [Example 67]: the IC50 in data set [1] (Homo sapiens, Fibroblast, 24 h, Table 6, 24 hours with compound, further growth, SRB, read-out: IC50 (μM) NFF) is 2.2 ± 0.2 µM; in data set [1] (Homo sapiens, Fibroblast, Table 10, standard deviations in parentheses, read-out: Cell line IC50 (μM) NFF), 2.2 µM; with MM96L melanoma cells (Homo sapiens, MM96L, 24 h, Table 6, 24 hours with compound, further growth, SRB, read-out: IC50 (μM) MM96L), 0.2 ± 0.1 µM; in the data set on MM96L melanoma cells (Homo sapiens, MM96L, Table 10, standard deviations in parentheses, read-out: Cell line IC50 (μM) MM96L), 0.2 µM; in the data set on MM96L melanoma cells (Homo sapiens, MM96L, most preferred compounds, exemplary examples, read-out: potency of IC50 against the MM96 melanoma cells) it was at most 0.5 µM; in [2] (Homo sapiens, C180-13S), 1.24 µM. Besides, the IC50 came to 2.73 µM with DO4 melanoma cells (Homo sapiens, DO4); 1.06 µM in data set [3] (Homo sapiens, DU-145); 1.47 µM in the data set with JAM ovarian cancer cells (Homo sapiens); 0.96 µM in data set [4] (Homo sapiens, MCF7); 2.59 µM with SkMel28 melanoma cells (Homo sapiens, SK-MEL-28). This compound yielded a Selectivity in the data set with MM96L melanoma cells (Table 6, IC50 (NFF)/IC50 (MM96L)) of 11. In the data set on p21^WAF1/Cip1 (CDKN1A), the “Induction of mRNA for p21^WAF1/Cip1” value is on record as “Induction of mRNA for p21^WAF1/Cip1 was seen”.
Regarding `O=C(CCCSC[C@H](NC(=O)c1ccc(Br)cc1)C(=O)NCc1ccccc1)NO` [Example 24], the IC50 in data set [1] (Table 10, standard deviations in parentheses, read-out: Cell line IC50 (μM) NFF) came out at 0.83 µM; in the data set on MM96L melanoma cells (Table 10, standard deviations in parentheses, read-out: Cell line IC50 (μM) MM96L), 0.2 µM; in data set [2], 1.5 µM; with DO4 melanoma cells it was 3.5 µM; in data set [3] it was 3.8 µM; in the data set with JAM ovarian cancer cells it was 2 µM. The IC50 was found to be 1.16 µM in [4] and 5.7 µM in the data set with SkMel28 melanoma cells. In addition, the “Induction of mRNA for p21^WAF1/Cip1” value in the data set on p21^WAF1/Cip1 (CDKN1A) is “Induction of mRNA for p21^WAF1/Cip1 was seen”. Further, the Tmax in data set [5] is around 15 min. Moreover, the “time for which high serum levels of drug were maintained” value in data set [5] was above 4 h. In data set [5] (serum, preliminary study), this compound yielded a Cmax of around 6000 ng/mL.
